The values below come from PMC4026528 (PLoS ONE, 2014).

pIC50: −log10 of the molar value. Several values for one entry are separate records, joined by “and”; a condition that tells them apart may be missing. Identical values can stand only once.

Series [1] deals with U2OS (osteosarcoma) cells. As to the kind of experiment: Soft agar assay (anchorage-independent growth), U2OS. Type of series: cell-based, human. Here is the method: (§1) Soft agar assay and analysis was carried out as previously described. For scratch assay, confluent monolayer of U2OS and HT-1080 cells were subjected to scratch using a sterile pipette tip. Wounded monolayers were washed to remove debris and incubated with SEN461 at different concentrations for 20 hours. After the incubation period, images were taken under an Axiovert 200M (Zeiss) microscope equipped with a CCD camera, and the gap width was measured using MetaMorph 6.3 software (Universal Imaging Corp.) to calculate the area covered by cells (pixels unit). The tube formation assay was performed using growth factor-reduced Matrigel from BD (BD Biosciences; San Jose, CA, USA). Matrigel was thawed overnight at 4°C and was diluted (1∶1) with phenol red-free DMEM without serum. 100 µl of the diluted matrigel was used to coat the wells of a 96 well plate and was allowed to polymerize for 2 hours at 37°C. After equilibrating the gel with the complete growth medium, 15×10^3 cells were seeded in each well and incubated for 20 hours. The tube formation was monitored under a phase contrast microscope (Axiovert 200, Zeiss) and imaged using MetaMorph system (Universal Imaging Corp).

In series [2] the test system is Wnt transcriptional activity (TCF reporter) in U2OS cells. The experiment in a line: TCF-Luciferase/TA-Renilla Wnt reporter assay in U2OS. The conditions noted are these: 24 h, concentration dependent. Type of series: cell-based, human. An excerpt:
The generation of TCF-Luciferase and TA-Renilla reporter plasmids as well as IC50 determination and calculation was reported previously. Human AXIN1 and WNT3A cDNAs were purchased from Origene as “transfection ready” plasmids. Dominant negative TCF4 cDNA was purchased from Upstate. Luciferase reporter of the nucleolin promoter (pNucL14) and FLAG-c-Myc expressing vector were from B. Amati. Luciferase reporter of the Hes5 promoter and Notch1-IC expressing vector were from I. Screpanti. Lentiviral vectors for inducible dominant negative TCF4 (rLV-EF1-tTS, rLV-EF1-rtTA and rLV-TRE-CMV-HA-TCF4DN) were purchased from Vectalys.
Transfections were carried out using Lipofectamine 2000 (Invitrogen) according to the manufacturer’s instructions. Lentiviral expression of TCF-Luc, TA-Renilla, and the inducible dominant negative TCF4, were carried out following Vectalys instructions. For reporter assays, luciferase activities were performed as described previously.
Background: In a reporter assay the amount or activity of a reporter protein is the signal.

The test system of series [3] is Axin1, c-Myc, p21 protein in HT-1080 cells. The experiment in a line: Western blotting in HT-1080. The format is cell-based, human. As to conditions: HT-1080, overnight.
Series [4] has as its system Axin1 and β-catenin in 143B osteosarcoma cells. As to the kind of experiment: Western blotting in 143B. Type of series: cell-based, human. In general terms: In western blotting, separated proteins are transferred to a membrane and probed.
Series [5] concerns Axin1 and β-catenin in G292 osteosarcoma cells. The experiment in a line: Western blotting in G292. The format is cell-based, human.
Another series deals with HT-1080 cells. As to the kind of experiment: Tube formation assay, HT-1080. The format is cell-based, human. As to conditions: HT-1080, 24 hours exposure, vs DMSO. Here is the method: as §1, with “After equilibrating the gel with the complete growth medium, 15×10^3 cells were seeded in each well and incubated for 20 hours.” left out
The nature of series [6]: Plasma and tumor exposure in HT-1080 xenograft mice. Type of series: in vivo, female Crl:CD-1 nude mice. The conditions noted are these: 30 mg/kg BID PO. Here is the method:
Female athymic nude mice (6 weeks old, Crl:CD-1 nude mice) were obtained from Charles River Italia (Calco, Italy). HT-1080 cells (6×10^∧6 cells) were resuspended in 200 µl of PBS 1X and injected subcutaneously in the right flank of the mice. Body weight and tumor measurements (using a digital caliper) were performed twice a week. Randomization was performed on day 12 after cell injection by comparing tumor mass and treatments started on day 13 when tumors reached a median size of 246 mm^3 (range = 230–268 mm^3). SEN461 was formulated in 0.5% w/v Methocel in MilliQ water and administered PO by oral gavage twice a day at 30 mg/kg for seven consecutive days in a total of 15 animals (n = 5 for each time point). Control animals (n = 5) were administered with the vehicle for the same time period. On treatment day 19, the mice were euthanized under inhalant anesthesia with isoflurane and tumor and blood samples were collected at three different time points (1–4–8 h, n = 5 animals for each time point) after last treatment and subjected to gene expression analysis and compound quantification. All mice were maintained in a conventional-specific-pathogen-free facility according to the NIH guidelines using an approved Animal Care and Use Committee protocol. During all the experimental time period, mice were housed (5 animals/cage) in individually ventilated solid floor plastic cages (Sealsafe Plus GR500, Tecniplast-Gazzada (VA) – Italy) using as bedding the Sawdust SCOBIS UNO by MUCEDOLA S.r.l (via Galileo Galilei 4, 20019 Settimo Milanese, Milano, Italy). Cages were maintained at a temperature of 20–24°C and humidity of 40–70% (Siemens Desigo Apparatus ver. 4.1) with 70 air changes/hour in the cage (10–15 air changes/hour in the room). Animals were subjected to a 12-hour light/12-hour dark cycle and have free access to a standard pelleted commercial laboratory diet (Certified Rodent irradiated 4RF21– Mucedola, Italy) and to municipal tap water, purified by reverse osmosis and autoclaved. The study was conducted in compliance with Decreto Legislativo January 27, 1992, N. 116, Gazzetta Ufficiale N. 40 February 18, 1992, (Directive N. […]) concerning protection of animals used for scientific purposes. The project was authorized by the Italian Institute of Health (48/2009/B). The experimental protocol was rewieved and approved by the Internal Ethical Committee.

Series [7] is described as follows: Body weight and intestinal histology of treated mice. The format is in vivo, female Crl:CD-1 nude mice. The conditions noted are these: 30 mg/kg twice a day for seven days. Here is the method: Female athymic nude mice (6 weeks old, Crl:CD-1 nude mice) were obtained from Charles River Italia (Calco, Italy). HT-1080 cells (6×10^∧6 cells) were resuspended in 200 µl of PBS 1X and injected subcutaneously in the right flank of the mice. Body weight and tumor measurements (using a digital caliper) were performed twice a week. Randomization was performed on day 12 after cell injection by comparing tumor mass and treatments started on day 13 when tumors reached a median size of 246 mm^3 (range = 230–268 mm^3). SEN461 was formulated in 0.5% w/v Methocel in MilliQ water and administered PO by oral gavage twice a day at 30 mg/kg for seven consecutive days in a total of 15 animals (n = 5 for each time point). Control animals (n = 5) were administered with the vehicle for the same time period. On treatment day 19, the mice were euthanized under inhalant anesthesia with isoflurane and tumor and blood samples were collected at three different time points (1–4–8 h, n = 5 animals for each time point) after last treatment and subjected to gene expression analysis and compound quantification. All mice were maintained in a conventional-specific-pathogen-free facility according to the NIH guidelines using an approved Animal Care and Use Committee protocol. […]

In the case of `COCC(=O)N1CCN(C(=O)C2CCC(Cn3c(=O)c4cc(OC)ccc4n(C)c3=O)CC2)CC1` (stereo not drawn) [SEN461], in series [1], the negative logarithm of the IC50 (pIC50) is 6.52. For the same compound, in series [2], the “TCF-dependent reporter activity (TCF-Luciferase/TA-Renilla)” value is on record as “reduced TCF-dependent reporter activity”. In addition, in series [3], the Axin1 protein level entry is reported as “robust concentration dependent stabilization”, the “CDK inhibitor p21 protein level” value is given as “up-regulation” and the c-Myc protein level result is given as “down-modulation of c-Myc”. In addition, in series [4], the Axin1 protein level entry is recorded as “Axin1 stabilization” and the “cytoplasmic β-catenin total level” value is recorded as “down-regulation of total level of cytoplasmic β-catenin”. For the same compound, in series [5], the Axin protein level entry was “Axin stabilization” and the β-catenin level entry is reported as “β-catenin down-modulation”. The tubule-formation activity entry in the series with HT-1080 cells is “did not produce any change”. In series [6] (day 7, 1 h), this compound returned a Ctumor/plasma of 0.23. Besides, in series [6] (day 7, 1 h after last dose), the Cplasma is 6.6 µmol/L and 6.62 ± 2.08 µmol/L; the Ctumor is 1.5 µmol/L and 1.54 ± 0.35 µmol/L. The Ctumor/plasma in series [6] (day 7, 4 h) amounted to 0.23. In series [6] (day 7, 4 h after last dose), this compound showed a Cplasma of 2.57 ± 0.08 µmol/L and a Ctumor of 0.58 ± 0.08 µmol/L. In addition, the Ctumor/plasma in series [6] (day 7, 8 h) is recorded as 0.17. In series [6] (day 7, 8 h after last dose), the Cplasma stood at 0.57 ± 0.19 µmol/L and the Ctumor came to 0.10 ± 0.02 µmol/L. Moreover, in series [7], the body weight entry was “maintained their body weight with no significant changes” and the “histology of gastrointestinal tract” value was “absence of gross histological changes”.

A word on the pIC50: it is the IC50 on a negative log10 scale, so that one unit is a factor of ten. A higher pIC50 goes with a small IC50.
